Data on 8 molecules can be found in ChEMBL document CHEMBL5584251, “Design and synthesis of novel and potent allosteric HIV-1 integrase inhibitors with a spirocyclic moiety” (Bioorg Med Chem Lett, 2024).

The target in the first data set is Human immunodeficiency virus type 1 integrase (Human immunodeficiency virus 1, UniProt Q7ZJM1). Kind of data set: Allosteric inhibition of HIV-1 integrase by ELISA based IN-DNA assembly/Strand transfer assay.
Sequence of Human immunodeficiency virus type 1 integrase (Q7ZJM1 whole entry): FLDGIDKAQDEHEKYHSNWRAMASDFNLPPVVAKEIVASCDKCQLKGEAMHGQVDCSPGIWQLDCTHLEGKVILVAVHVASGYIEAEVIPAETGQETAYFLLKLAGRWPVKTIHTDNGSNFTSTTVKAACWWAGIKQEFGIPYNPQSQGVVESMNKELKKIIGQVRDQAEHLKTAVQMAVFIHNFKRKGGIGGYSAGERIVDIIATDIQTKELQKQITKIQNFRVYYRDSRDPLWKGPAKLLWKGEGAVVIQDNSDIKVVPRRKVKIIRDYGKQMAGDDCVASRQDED
Conditions: not given
`Cc1cc(C(=O)NC2CCCCC2)c2c(c1C(OC(C)(C)C)C(=O)O)[C@]1(CC2)CC[C@@H](C)CC1` (stereo not given in full): half-maximal inhibition (IC50) was put at 2 nM.
On the same count and under the same terms, in the case of `Cc1cc(C(=O)NC2CCCCC2)c2c(c1[C@@H](OC(C)(C)C)C(=O)O)[C@]1(CC2)CC[C@@H](C)CC1` it was 8.3 nM.
Same read-out and setting: for `Cc1cc(C(=O)NC2CCCCC2)c2c(c1[C@H](OC(C)(C)C)C(=O)O)[C@]1(CC2)CC[C@@H](C)CC1` the value was 1.4 nM; for `Cc1cc(C(=O)NC2CCCCCC2)c2c(c1C(OC(C)(C)C)C(=O)O)[C@]1(CC2)CC[C@@H](C)CC1` (stereo not given in full), 1.8 nM; for `Cc1cc(C(=O)N(C)C)c2c(c1C(OC(C)(C)C)C(=O)O)[C@]1(CC2)CC[C@@H](C)CC1` (stereo not given in full), 1800 nM.
Same read-out and setting: in the case of `Cc1ccc2c(c1C(OC(C)(C)C)C(=O)O)[C@]1(CC2)CC[C@@H](C)CC1` (mixture of isomers) it was 54 nM; in that of `Cc1ccc2c(c1C(OC(C)(C)C)C(=O)O)[C@]1(CCC2)CC[C@@H](C)CC1` (mixture of isomers), 50 nM.

The next data set concerns Human immunodeficiency virus 1. Put plainly: Antiviral activity against wild type HIV-1 NL4-3 infected in human MT4 cells assessed as reduction in viral replication. The conditions noted are these: Human immunodeficiency virus 1, NL4-3, MT4. Format: functional, organism-based.
On to `Cc1cc(C(=O)NC2CCCCC2)c2c(c1C(OC(C)(C)C)C(=O)O)[C@]1(CC2)CC[C@@H](C)CC1` (stereo not given in full), for which the EC50 was 21 nM.
The same measure, in the same setting: in the case of `Cc1cc(C(=O)NC2CCCCC2)c2c(c1[C@@H](OC(C)(C)C)C(=O)O)[C@]1(CC2)CC[C@@H](C)CC1` it was 110 nM; in that of `Cc1cc(C(=O)NC2CCCCC2)c2c(c1[C@H](OC(C)(C)C)C(=O)O)[C@]1(CC2)CC[C@@H](C)CC1`, 7.4 nM.
The same measure, in the same setting: in the case of `Cc1cc(C(=O)NC2CCCCCC2)c2c(c1C(OC(C)(C)C)C(=O)O)[C@]1(CC2)CC[C@@H](C)CC1` (stereo not given in full) it was 21 nM; in that of `Cc1cc(C(=O)N(C)C)c2c(c1C(OC(C)(C)C)C(=O)O)[C@]1(CC2)CC[C@@H](C)CC1` (stereo not given in full), 2600 nM; in that of `Cc1ccc2c(c1C(OC(C)(C)C)C(=O)O)[C@]1(CC2)CC[C@@H](C)CC1` (mixture of isomers), 5300 nM.
Still for that read-out and setting: for `Cc1ccc2c(c1C(OC(C)(C)C)C(=O)O)[C@]1(CCC2)CC[C@@H](C)CC1` (mixture of isomers) the value was 4000 nM; for `Cc1cn([C@H]2C[C@H](N=[N+]=[N-])[C@@H](CO)O2)c(=O)[nH]c1=O` [ZIDOVUDINE], 29.9 nM.

A further data set relates to Human immunodeficiency virus 1. Put plainly: Antiviral activity against HIV-1 T125A infected in human MT4 cells assessed as reduction in viral replication. The settings on record: Human immunodeficiency virus 1, T125A. It is filed as functional, organism-based.
Regarding `Cc1cc(C(=O)NC2CCCCC2)c2c(c1C(OC(C)(C)C)C(=O)O)[C@]1(CC2)CC[C@@H](C)CC1` (stereo not given in full), the EC50 is 130 nM.
Same read-out and setting: in the case of `Cc1cc(C(=O)NC2CCCCC2)c2c(c1[C@@H](OC(C)(C)C)C(=O)O)[C@]1(CC2)CC[C@@H](C)CC1` it was 1200 nM; in that of `Cc1cc(C(=O)NC2CCCCC2)c2c(c1[C@H](OC(C)(C)C)C(=O)O)[C@]1(CC2)CC[C@@H](C)CC1`, 120 nM; in that of `Cc1cc(C(=O)NC2CCCCCC2)c2c(c1C(OC(C)(C)C)C(=O)O)[C@]1(CC2)CC[C@@H](C)CC1` (stereo not given in full), 580 nM.
On the same count and under the same terms, in the case of `Cc1cc(C(=O)N(C)C)c2c(c1C(OC(C)(C)C)C(=O)O)[C@]1(CC2)CC[C@@H](C)CC1` (stereo not given in full) it was over 6000 nM; in that of `Cc1ccc2c(c1C(OC(C)(C)C)C(=O)O)[C@]1(CC2)CC[C@@H](C)CC1` (mixture of isomers), over 6000 nM; in that of `Cc1cn([C@H]2C[C@H](N=[N+]=[N-])[C@@H](CO)O2)c(=O)[nH]c1=O` [ZIDOVUDINE], 38.9 nM.

Test system in a further data set: not listed separately
Kind of data set: Metabolic stability in human liver microsome. Also: time not given here. It is filed as ADME. The conditions noted are these: microsomes.
Consider `Cc1cc(C(=O)NC2CCCCC2)c2c(c1C(OC(C)(C)C)C(=O)O)[C@]1(CC2)CC[C@@H](C)CC1` (stereo not given in full), for which the Stability stood at 94%.
Still for that read-out and setting: in the case of `Cc1cc(C(=O)NC2CCCCC2)c2c(c1[C@@H](OC(C)(C)C)C(=O)O)[C@]1(CC2)CC[C@@H](C)CC1` it was 92%.
Molecule `Cc1cc(C(=O)NC2CCCCC2)c2c(c1[C@H](OC(C)(C)C)C(=O)O)[C@]1(CC2)CC[C@@H](C)CC1` returned a Stability of 91%.
On the same count and under the same terms, for `Cc1cc(C(=O)NC2CCCCCC2)c2c(c1C(OC(C)(C)C)C(=O)O)[C@]1(CC2)CC[C@@H](C)CC1` (stereo not given in full) the value was 83%; for `Cc1cc(C(=O)N(C)C)c2c(c1C(OC(C)(C)C)C(=O)O)[C@]1(CC2)CC[C@@H](C)CC1` (stereo not given in full), 97%; for `Cc1ccc2c(c1C(OC(C)(C)C)C(=O)O)[C@]1(CC2)CC[C@@H](C)CC1` (mixture of isomers), 57%.

Test system in the next data set: not listed separately
Kind of data set: Metabolic stability in rat liver microsome. Also: time not given here. Format: ADME. The conditions noted are these: microsomes.
In the case of `Cc1cc(C(=O)NC2CCCCC2)c2c(c1C(OC(C)(C)C)C(=O)O)[C@]1(CC2)CC[C@@H](C)CC1` (stereo not given in full), the Stability amounted to 99%.
`Cc1cc(C(=O)NC2CCCCC2)c2c(c1[C@@H](OC(C)(C)C)C(=O)O)[C@]1(CC2)CC[C@@H](C)CC1` returned a Stability of 100%.
The molecule `Cc1cc(C(=O)NC2CCCCC2)c2c(c1[C@H](OC(C)(C)C)C(=O)O)[C@]1(CC2)CC[C@@H](C)CC1` returned a Stability of 100%.
As to `Cc1cc(C(=O)NC2CCCCCC2)c2c(c1C(OC(C)(C)C)C(=O)O)[C@]1(CC2)CC[C@@H](C)CC1` (stereo not given in full), the Stability was determined as 87%.
On the same count and under the same terms, for `Cc1cc(C(=O)N(C)C)c2c(c1C(OC(C)(C)C)C(=O)O)[C@]1(CC2)CC[C@@H](C)CC1` (stereo not given in full) the value was 94%.
On the same count and under the same terms, for `Cc1ccc2c(c1C(OC(C)(C)C)C(=O)O)[C@]1(CC2)CC[C@@H](C)CC1` (mixture of isomers) the value was 51%.

Test system in the next data set: not listed separately
Put plainly: Permeability of the compound in human Caco-2 cells. It is filed as ADME, cell-based. The conditions noted are these: read-out: permeability.
For the molecule `Cc1cc(C(=O)NC2CCCCC2)c2c(c1C(OC(C)(C)C)C(=O)O)[C@]1(CC2)CC[C@@H](C)CC1` (stereo not given in full), the Papp was 24 ×10⁻⁶ cm/s.
`Cc1cc(C(=O)NC2CCCCC2)c2c(c1[C@@H](OC(C)(C)C)C(=O)O)[C@]1(CC2)CC[C@@H](C)CC1`: the Papp was 20 ×10⁻⁶ cm/s.
The same measure, in the same setting: for `Cc1cc(C(=O)NC2CCCCC2)c2c(c1[C@H](OC(C)(C)C)C(=O)O)[C@]1(CC2)CC[C@@H](C)CC1` the value was 20 ×10⁻⁶ cm/s; for `Cc1cc(C(=O)NC2CCCCCC2)c2c(c1C(OC(C)(C)C)C(=O)O)[C@]1(CC2)CC[C@@H](C)CC1` (stereo not given in full), 30 ×10⁻⁶ cm/s.
Still for that read-out and setting: for `Cc1cc(C(=O)N(C)C)c2c(c1C(OC(C)(C)C)C(=O)O)[C@]1(CC2)CC[C@@H](C)CC1` (stereo not given in full) the value was 7 ×10⁻⁶ cm/s; for `Cc1ccc2c(c1C(OC(C)(C)C)C(=O)O)[C@]1(CC2)CC[C@@H](C)CC1` (mixture of isomers), 48 ×10⁻⁶ cm/s.

Test system in a further data set: not listed separately
Kind of data set: Half life in rat at 0.3 mg/kg, iv. It is filed as ADME, organism-based. The conditions noted are these: in vivo.
`Cc1cc(C(=O)NC2CCCCC2)c2c(c1[C@H](OC(C)(C)C)C(=O)O)[C@]1(CC2)CC[C@@H](C)CC1`: the half-life was 4.2 h.

Test system in a further data set: not listed separately
Kind of data set: Clearance in rat at 0.3 mg/kg, iv. Format: ADME, organism-based. The conditions noted are these: in vivo.
`Cc1cc(C(=O)NC2CCCCC2)c2c(c1[C@H](OC(C)(C)C)C(=O)O)[C@]1(CC2)CC[C@@H](C)CC1` showed a clearance of 2.67 mL/min/kg.

Test system in another data set: not listed separately
Put plainly: Volume of distribution at steady state in rat at 0.3 mg/kg, iv. It is filed as ADME, organism-based. The settings on record: in vivo, read-out: Vdss.
As for `Cc1cc(C(=O)NC2CCCCC2)c2c(c1[C@H](OC(C)(C)C)C(=O)O)[C@]1(CC2)CC[C@@H](C)CC1`, the Vd is 0.57 L/kg.

Test system in the next data set: not listed separately
Put plainly: MRT in rat at 0.3 mg/kg, iv. The conditions noted are these: in vivo. Format: ADME, organism-based.
Molecule `Cc1cc(C(=O)NC2CCCCC2)c2c(c1[C@H](OC(C)(C)C)C(=O)O)[C@]1(CC2)CC[C@@H](C)CC1` came in with an MRT of 3.6 h.

Test system in a further data set: not listed separately
Put plainly: Oral bioavailability in rat at 3 mg/kg. It is filed as ADME, organism-based. The settings on record: in vivo.
In turn, `Cc1cc(C(=O)NC2CCCCC2)c2c(c1[C@H](OC(C)(C)C)C(=O)O)[C@]1(CC2)CC[C@@H](C)CC1` gave a bioavailability of 64%.
